We go through one substance from paper PMC6145916, “Interaction of mitochondrial fission factor with dynamin related protein 1 governs physiological mitochondrial function in vivo” (Scientific Reports, 2018).

The test system of the assay is primary cortical neurons. In words: Mitochondrial motility, primary cortical neurons. Type of assay: cell-based, rat. Particulars: 4 µM P259, one hour. Here is the method: Bottom, quantification of the form factor (degree of branching) and aspect ratio (major/minor axis length). At least 10,000 mitochondrial fragments were analyzed for each condition. Mitochondrial reactive oxygen species production (MitoSox Red) (b) and membrane potential (TMRM) (c) after overnight treatment with indicated concentrations of peptide (n = 3, with 3 replicates). […] Overlay of live microscopy imaging at time 0 (green) and 150 (red) seconds. […] An estimation of the % mobile mitochondria from the Pearson coefficient of each set of images. Data are mean ± s.e.
To quantify mitochondrial motility, the TMRM images were colored green and red at times 0 and 150 seconds, respectively. Mitochondrial motility corresponded to decreased co-localization of the two colors (Fig. 3d). […] Therefore, Mff-mediated anchoring of Drp1 on the outer mitochondrial membrane was necessary for mitochondrial motility in primary cortical neurons.
DMI6000B inverted microscope. All mitochondria were imaged with a GFP fi lter. Then, green […]
filter every 30 seconds for 5 minutes. The initial image was subtracted from each subsequent image to track signal change over time. […]
GFP filter (Keyence). […] The GFP and MitoSox signals were measured in a ring around each nucleus. Average MitoSox levels were quantified in […]
To quantify mitochondrial motility, the images at time 0 and 150 seconds w ere overlaid. […]

Where no end group is shown, it is not given here.

Regarding “YGRKKRRQRRRGSGIIQLPEIVVV-NH2 (C-terminus assumed) [P259]”, where the note is “TMRM images 0 vs 150 sec, estimated from Pearson coefficient, basal approximately 37%, n = 4 control and 6 P259”, the “% mobile mitochondria” value is ~ 22%. In addition, the “decline in the proportion of mobile mitochondria” value (vs no peptide control) worked out at 40%.
